Measured values published in PMC3561363, “A Novel Retro-Inverso Peptide Inhibitor Reduces Amyloid Deposition, Oxidation and Inflammation and Stimulates Neurogenesis in the APPswe/PS1ΔE9 Mouse Model of Alzheimer’s Disease” (PLoS ONE, 2013).
Where a SMILES comes first, the peptide text is derived from it.

Tested on: Human oligomerised Aβ
Test: Soluble Aβ oligomer levels in brain, sandwich ELISA
Assay type: in vivo, human Aβ in APP/PS1 mice
Conditions: 100 nmol/kg i.p. once daily, 21 days, 10 months old APP/PS1 mice, vs saline; p<0.01, 4 animals per group
Method: APPswe/PS1ΔE9 mice with a C57Bl/6 background (APP/PS1 mice) were obtained from the Jackson lab (http://research.jax.org/repository/alzheimers.html). […] To look at the effects of RI-OR2-TAT on mouse brain pathology (experiment 2), 8 female 10-months-old APP/PS1 mice were used. The animals were housed in single cages in a temperature controlled holding room (21.5°C±1) with 12∶12 h light and dark cycle. Food and water was available ad libitum.
For experiment 2, 4 animals were injected intraperitonially (i.p.) with 0.9% NaCl (vehicle control) and the other 4 with RI-OR2-TAT (100 nmol/kg in 0.9% NaCl) once daily, for 21 days. On the 22nd day, the animals were perfused transcardially with ice-cold PBS and 4% paraformaldehyde and then the brains were removed and post-fixed in 4% ice cold paraformaldehyde.
Human oligomerised Aβ was measured using a kit purchased from Invitrogen, according to the manufacturer’s instructions. Briefly, the right hemispheres from the brains of transgenic APP/PS1 mice treated with RI-OR2-TAT, or controls, were pooled separately and homogenized. Quantification of total protein was determined using the Bradford protein assay and was measured on a Nanophotometer (Implen, Germany). The homogenates were centrifuged at 100,000 g at 4°C for 1 h. […] The final Aβ oligomer values were determined following normalization of total protein levels.

Compound: CC(=O)N[C@H](CCCNC(=N)N)C(=O)NCC(=O)N[C@H](Cc1ccccc1)C(=O)N[C@H](Cc1ccccc1)C(=O)N[C@@H](C(=O)N[C@H](CC(C)C)C(=O)N[C@H](CCCCN)C(=O)NCC(=O)N[C@H](CCCNC(=N)N)C(=O)N[C@H](CCCNC(=N)N)C(=O)N[C@H](CCCNC(=N)N)C(=O)N[C@H](CCCNC(=N)N)C(=O)N[C@H](CCC(N)=O)C(=O)N[C@H](CCCNC(=N)N)C(=O)N[C@H](CCCNC(=N)N)C(=O)N[C@H](CCCCN)C(=O)N[C@H](CCCCN)C(=O)N[C@H](CCCNC(=N)N)C(=O)NCC(=O)N[C@H](Cc1ccc(O)cc1)C(N)=O)C(C)C [RI-OR2-TAT, Ac-rGffvlkGrrrrqrrkkrGy-NH2] (HELM PEPTIDE1{[ac].[dR].G.[dF].[dF].[dV].[dL].[dK].G.[dR].[dR].[dR].[dR].[dQ].[dR].[dR].[dK].[dK].[dR].G.[dY].[am]}$$$$V2.0)
- reduction of soluble Aß oligomer levels in brain: 25%
